Assays:
Assay type in all cases: in vivo, Sprague Dawley rats
[1] = Body fat percentage by nuclear magnetic resonance body composition analyzer in high-fat diet rats; details: HFD rats, FIG. 1
Protocol: Male Sprague Dawley rats aged 6-8 weeks were housed under a 12/12 h light/dark cycle at 22° C. and given free access to water and high-fat diet (HFD, 60% kcal from fat) for 12 weeks. After the 12 weeks, all rats were randomly divided into 3 groups of 8 animals. They were supplemented with or without DHB according to the following: • (1) non-supplement group (Con HFD only, Group 1); • (2) DHB supplement group (DHB+HFD, 100 mg/kg, Group 2); • (3) DHB supplement group (DHB+HFD, 200 mg/kg, Group 3). Before supplementing DHB, the muscle content of all rats was measured by nuclear magnetic resonance body composition analyzer. And then all rats were administered DHB before each major meal once daily by gavage (i.g.) in normal saline solution for 4 months. The muscle content of all rats was tested by nuclear magnetic resonance body composition analyzer every month. […] FIG. 1 is a graph of percentage of body fat of three groups of rats (Con; DHB 100 mg/kg; DHB 200 mg/kg) every month. […] Thus, DHB supplementation could achieve the beneficial effects on weight loss and increasing muscle mass.

[2] = system: glucose transporter type 4 (GLUT4); experiment: Insulin stimulating membrane translocation of GLUT4 in skeletal muscle by western blot; details: HFD rats, DHB groups 100 and 200 mg/kg, especially higher dose; insulin 0.75 IU/kg i.p.; gastrocnemius muscle, FIG. 2
Protocol: (§1) Male Sprague Dawley rats aged 6-8 weeks were housed under a 12/12 h light/dark cycle at 22° C. and given free access to water and high-fat diet (HFD, 60% kcal from fat) for 12 weeks. After the 12 weeks, all rats were randomly divided into 3 groups of 8 animals. They were supplemented with or without DHB according to the following: • (1) non-supplement group (Con HFD only, Group 1); • (2) DHB supplement group (DHB+HFD, 100 mg/kg, Group 2); • (3) DHB supplement group (DHB+HFD, 200 mg/kg, Group 3).
Before the rats were sacrificed, half the rats in each group were injected with 0.75 IU/kg body weight insulin (i.p.) to activate glucose uptake and assess the insulin resistance in the skeletal muscle. […]
To assess that DHB could improve insulin resistance in the skeletal muscle, the insulin stimulating membrane translocation of glucose transporter type 4 (GLUT4) by the western blot analysis was measured and compared among the groups. […]
Western blot analysis: The concentration of protein in the gastrocnemius muscle was quantitated by piercing bicinchoninic acid (BCA), and 120 μg of total protein was electrophoresed on a 12% SDS polyacrylamide gel and electro-transferred onto Polyvinylidene difluoride (PVDF) membranes. […] The images were quantified using Image Analysis Software.

soleus muscles = experiment: HE staining of soleus, morphological changes of the skeletal muscle; details: HFD rats, DHB supplementation groups, especially group 3 (200 mg/kg)
Protocol: as §1
(§2) Before the rats were sacrificed, half the rats in each group were injected with 0.75 IU/kg body weight insulin (i.p.) to activate glucose uptake and assess the insulin resistance in the skeletal muscle. Fifteen minutes later, all the rats were anesthetized with chloral hydrate; the soleus muscles were fixed in paraformaldehyde, and the gastrocnemius muscles were frozen immediately in liquid nitrogen and stored at −80° C. for protein-related experiments.
To evaluate the morphological changes of the skeletal muscle, HE staining of soleus was conducted. Hematoxylin-eosin (HE) staining: Soleus muscles were fixed in paraformaldehyde overnight, dehydrated in an ascending graded ethanol series, equilibrated with xylene, embedded in paraffin and sectioned into 5- to 10-μm slices. Then, the samples were dewaxed with xylene and a descending graded ethanol series. […]

ATP = ATP determination in serum and skeletal muscle (ELISA); details: HFD rats
Protocol: Male Sprague Dawley rats aged 6-8 weeks were housed under a 12/12 h light/dark cycle at 22° C. and given free access to water and high-fat diet (HFD, 60% kcal from fat) for 12 weeks. After the 12 weeks, all rats were randomly divided into 3 groups of 8 animals. They were supplemented with or without DHB according to the following: • (1) non-supplement group (Con HFD only, Group 1); • (2) DHB supplement group (DHB+HFD, 100 mg/kg, Group 2); • (3) DHB supplement group (DHB+HFD, 200 mg/kg, Group 3). Based on the results of decreased fiber number and insulin resistance, the mitochondrial function in skeletal muscle might be also impaired. ATP and ROS levels in serum and skeletal muscle, which represented mitochondrial function, were further determined. ATP determination: The ATP concentration in the gastrocnemius muscle was measured using ELISA according to the manufacturer's instructions. Before the ELISA was tested, the gastrocnemius muscle lysates were first measured with a BCA protein assay kit, and the total protein concentration of each group was adjusted to the same by RIPA. The concentration of ATP was then calculated based on the absorption density determined at 450 nm.

ROS = experiment: Reactive oxygen species (ROS) test in serum and skeletal muscle; details: HFD rats, DHB 100 and 200 mg/kg
Protocol: Male Sprague Dawley rats aged 6-8 weeks were housed under a 12/12 h light/dark cycle at 22° C. and given free access to water and high-fat diet (HFD, 60% kcal from fat) for 12 weeks. After the 12 weeks, all rats were randomly divided into 3 groups of 8 animals. They were supplemented with or without DHB according to the following: • (1) non-supplement group (Con HFD only, Group 1); • (2) DHB supplement group (DHB+HFD, 100 mg/kg, Group 2); • (3) DHB supplement group (DHB+HFD, 200 mg/kg, Group 3). Based on the results of decreased fiber number and insulin resistance, the mitochondrial function in skeletal muscle might be also impaired. ATP and ROS levels in serum and skeletal muscle, which represented mitochondrial function, were further determined. Reactive oxygen species (ROS) test: Ten microliters of skeletal muscle or lysate or 10 μl of serum was added to 127.5 μl of reaction buffer in 96-well plates (containing 30 mM HEPES (pH 7.2), 200 mM KCl, 1 mM MgCl2, and 7.5 μl of 2,2′-azobis(2-methylpropionamidine) dihydrochloride). The same volume of ultrapure water was pipetted into the plate as a blank. The microplate was put into a fluorescence microplate reader at 35° C. 10 μl of the fluorescent probe H2DCF-DA was added to each well for a final concentration of 40 μM immediately before reading, and the level of ROS was detected at 488 and 525 nm.

AMPK/SIRT1/PGC-1α = experiment: Western blot of AMPK/SIRT1/PGC-1α protein expression in muscle tissue; details: HFD rats, skeletal muscle
Protocol: as §1, §2
Protein sample preparation: For total protein extraction, 100 mg of the frozen gastrocnemius muscle was homogenized in radioimmunoprecipitation assay (RIPA) buffer (containing 0.2 μg/mL PMSF and 10 μg/mL phosphatase inhibitor) for 30 min and then centrifuged at 3,500 rpm×15 min and 12,000 rpm×15 min. The supernatants were extracted for the western blot analysis.
Western blot analysis: The concentration of protein in the gastrocnemius muscle was quantitated by piercing bicinchoninic acid (BCA), and 120 μg of total protein was electrophoresed on a 12% SDS polyacrylamide gel and electro-transferred onto Polyvinylidene difluoride (PVDF) membranes. Membranes were blocked with 5% (w/v) BSA for 2 h at room temperature and then incubated with primary antibodies overnight at 4° C. with slight shaking. After being washed with TBST three times, the membranes were incubated with a secondary antibody (1:2000) at room temperature for 2 h. The protein bands were visualized by enhanced chemiluminescence with a GENE Imaging system. The images were quantified using Image Analysis Software.
Western blot was used to check the protein expression of AMPK/SIRT1/PGC-1α in the muscle tissue.

COc1ccc2c(c1OC)CN1CCc3cc4c(cc3C1=C2)OCO4 [DHB, dihydroberberine]
reduction in body fat compared to control group ([1]; DHB 100 and 200 mg/kg i.g. once daily for 4 months): greater reduction in body fat
decrease of percentage of body fat versus beginning of supplementation ([1]; higher dose group (200 mg/kg) i.g. once daily, 4 months): about 52%
membrane translocation of GLUT4 after insulin stimulation relative to control group [2]: remarkably increased
number of muscle fibers compared with the control group (soleus muscles; FIG. 3a): increased dramatically
relative cross-sectional area of the muscle fibers versus control group (soleus muscles; FIG. 3b): dropped below that of the control group
production of ATP in serum relative to the control group (ATP; DHB 200 mg/kg, serum, FIG. 4a): 1.6 fold
production of ATP in skeletal muscle relative to the control group (ATP; DHB 200 mg/kg, skeletal muscle, FIG. 4c): 2.7 fold
production of ATP in serum (ATP; DHB treatment 100 and 200 mg/kg, serum, FIG. 4a): increased significantly
production of ATP in skeletal muscle (ATP; DHB treatment 100 and 200 mg/kg, skeletal muscle, FIG. 4c): increased significantly
ROS level in serum (ROS; serum, FIG. 4b): inhibit increased ROS effectively
ROS level in skeletal muscle (ROS; skeletal muscle, FIG. 4d): inhibit increased ROS effectively
total AMPK protein expression among the three groups (AMPK/SIRT1/PGC-1α; DHB 100 and 200 mg/kg vs control, GAPDH as internal reference, FIG. 4e): no significant difference
protein expression of p-AMPK (AMPK/SIRT1/PGC-1α; DHB groups, especially group 3 (200 mg/kg), FIG. 4e): dramatically upregulated
protein expression of SIRT1 relative to the control group (AMPK/SIRT1/PGC-1α; group 3 (DHB 200 mg/kg), FIG. 4f): approximately 1.9 fold
protein expression of PGC-1α relative to the control group (AMPK/SIRT1/PGC-1α; group 3 (DHB 200 mg/kg), FIG. 4g): ~2 fold

Source: patent publication US11903932B2, “Use of dihydroberberine or its derivatives to enhance muscle function” (NANJING NUTRABUILDING BIO-TECH CO., LTD., priority 2021, dated 2024)
